Results published in ChEMBL document CHEMBL3507680, “University of Dundee, Gates Library screen for HepG2 cell viability”.

Test: Human HepG2 cell viability assay in 384 well format
Format: toxicity, cell-based
Parameters: dose 125 nL, time 70.5 hour; concentration not given beside the values
Conditions: HepG2 cells, read-out: Inhibition

Structure (SMILES) | cytotoxicity at 70.5 h [%]
CCN(CC)S(=O)(=O)c1cc(Br)ccc1OC | -7.07
Cc1ccc(S(=O)(=O)N2CCN(CCCO)CC2)s1 | -2.4
COc1ccc(-n2cnc(Cl)c2CO)cc1 | -2.44
COc1ccc(-c2nc(CCNCc3ccncc3)co2)cc1 | 1.89
Cn1cc(C2CCCN2C(=O)c2cnc(-c3ncccn3)s2)cn1 (stereo not given) | -1.78
N#CC(NC(=O)CCCOc1cccnc1)c1ccc(F)cc1F (stereo not given) | 6.82
CN(C(=O)CSc1ncc[nH]1)C1CC1 | -3.27
Cc1ccc2c(c1)N(C(=O)c1cc[nH]c(=O)c1)CC(C)O2 (stereo not given) | -1.21
CCN(CC1CC1)C(=O)NCc1nnc2n1CCC2 | 1.57
Cc1ccc2c(c1)N(C(=O)c1c[nH]c(C)cc1=O)CC(C)O2 (stereo not given) | 28.6
Cc1ccc(F)cc1C(=O)N1CCOCC12CCCC2 | -5.21
Cc1cc(C(=O)Nc2ccc3c(c2)N(C)CCN(C)C3)on1 | -5.18
COc1c(CNCCc2c[nH]c3cc(F)ccc23)c(C(C)C)nn1C | 4.03
CCc1ccc(C(=O)Nc2ccc3c(c2)N(C)CCN(C)C3)o1 | -8.89
CCc1nnsc1C(=O)NCc1nnc2n1CCCCC2 | -3.94
CCc1nnsc1C(=O)NCc1nnc2n1CCC2 | -2.79
Cc1cc(C)n(Cc2ccc(C(=O)N3CCOCC3(C)C)cc2)n1 | 12.1
CCC(=O)Nc1ccc(N2CCC(OC)CC2)c(C(F)(F)F)c1 | -4.77
Brc1cccc(-c2noc(C3COCCO3)n2)c1 (stereo not given) | -9.75
COc1ccc(C(=O)N2CCOc3ccncc32)cc1 | -1.92
CCc1cc2c(N3CCCC(c4ccn[nH]4)C3)ncnc2s1 (stereo not given) | 2.73
CCc1nc(CS(=O)(=O)Cc2noc(C3CC3)n2)cs1 | -1.78
C[S+]([O-])CCNC(=O)N1CCSC2(CCCCC2)C1 (stereo not given) | -3.78
O=C(Cc1ccon1)N1CCc2cc(Br)sc2C1 | -3.84

Structure (SMILES) | cytotoxicity at 70.5 h [%]
O=C(NCC(O)CO)Nc1cc(Br)ccc1F (stereo not given) | -1.48
COc1ccc(C(C)NCc2ccsc2)cc1Cn1cccn1 (stereo not given) | -3.16
CN1CCOC(CNCC(=O)NCCc2ccc3c(c2)OCCO3)C1 (stereo not given) | 4.64
CC(C)c1nn(C)cc1CNCc1cccc(N(C)C)c1 | 6.7
CCc1ccc(C(=O)NC[C@H]2CCCN2C(=O)c2ccc(CC)o2)o1 | 2.7
CCN(Cc1ccc(N(C)C)cc1)S(=O)(=O)c1cc(Br)ccc1OC | -1.59
CCOc1ccc(Br)cc1S(=O)(=O)N(CC)Cc1ccc(N(C)C)cc1 | -3.07
Cc1cc(NC(=O)C2CCN(c3nnc(C)c(C)c3C#N)CC2)no1 | 0.58
COc1cc(CNC(=O)COC2CCCC2)ccc1O | -4.4
Cc1cc(NC(=O)NCCC(=O)N2CCCc3ccccc32)no1 | -6.7
CCN(CC)S(=O)(=O)NC1CCN(c2ccc(OC)cc2)CC1 | -3.82
COc1ccc(N2CCC(NS(=O)(=O)N(C)C(C)C)CC2)cc1 | 7.03
CCN(CCNC(=O)Nc1nnc(C)s1)C(=O)OC(C)(C)C | -5.88
Cc1nc(CN2CCN(S(=O)(=O)N3CCCCC3)CC2)oc1C | -4.75
COCCN(C)C(=O)NCCc1coc(-c2ccc(C)cc2)n1 | 7.28
Cc1ccc(N2CCCN(C(=O)CCc3ccsc3)CC2)nn1 | -6.07
CN1CCCC(CNC(=O)CN(C)S(=O)(=O)c2cccnc2)C1 (stereo not given) | 6.09
Cc1noc(C)c1CNC(=O)NCCC(=O)N1CCCc2ccccc21 | 3.77
CC(C)N(C(=O)Cn1cc(Cl)cn1)c1ccccc1 | -4.68
CN1CCN(CCOc2ccc(NC(=O)c3cnc[nH]3)cc2)CC1 | 6.08
CN1CCN(CCOc2ccc(NC(=O)c3ccoc3)cc2)CC1 | -4.12
Cc1cc(CNC(=O)NCCC(=O)N2CCCc3ccccc32)no1 | 7.7
CCC(C(=O)NCCc1coc(-c2ccc(C)cc2)n1)N(C)C (stereo not given) | 3.11
Cc1nc(CN2CCN(S(=O)(=O)N3CCOCC3)CC2)oc1C | -3.19

Structure (SMILES) | cytotoxicity at 70.5 h [%]
OCCN1CCC(CNCc2cn(-c3ccccc3)nn2)CC1 | -12.5
COCCCn1ccc(NC2CCOCC2)n1 | -7.45
CN(CC(=O)NCCC#N)C(c1ccccc1)c1ccccc1 | -14.5
O=C(c1sccc1Br)N1CCOCC1 | -15.9
CN(CC(N)=O)Cc1cc(Cl)cc2cccnc12 | -8.6
CN(Cc1nc2ccccc2[nH]1)C(=O)C(C)(C)n1cc(Cl)cn1 | -12.7
CC(O)CN1CCC(CNCc2cn(-c3ccccc3)nn2)CC1 (stereo not given) | -9.21
CC(C)(C(=O)NCCCc1nc2ccccc2[nH]1)n1cc(Cl)cn1 | -5.61
CS(=O)(=O)NCCNC(=O)c1ccc(OCc2ccccc2)nc1 | -9.1
CCC(C)(C)NC(=O)c1ccc(NC(=O)NCc2cc(C)no2)cc1 | -0.597
Cn1ncc2c(=O)[nH]c(N3CCCC3c3cccs3)nc21 (stereo not given) | 17.2
c1ccc(-c2nc(SCc3nnc(C4CC4)o3)n[nH]2)nc1 | -4.88
CCc1noc(CSc2n[nH]c(-c3ccccn3)n2)n1 | -3.21
N#CC1COCCN1S(=O)(=O)c1ccc2c(c1)CCC2 (stereo not given) | -8.31
CN(C)CCn1cc(NC(=O)NC(C)(C)c2nccs2)cn1 | -3.3
CCc1nc(CC)n(CC(=O)N(C)CC(F)(F)F)n1 | -4.55
CC(NC(=O)NCC(C)(C)O)c1ccc(-c2cncnc2)cc1 (stereo not given) | 19.1
CC(NC(=O)NCC(C)(C)O)c1ccc(-c2ccncc2)cc1 (stereo not given) | -1.45
CC(C)Sc1ccc(N2CCN(Cc3ccccn3)CC2)nn1 | -12.7
COc1ncnc(N(C)C)c1NC(=O)c1cscc1C | -9.9
CC(C)CCN(c1cn[nH]c1)S(=O)(=O)c1cccc(C#N)c1 | 18.2
Cc1ccc(C(C)NCCc2nccn2Cc2ccccc2)o1 (stereo not given) | -10.1
Cc1nc(CN(C)C2CCN(CC(=O)N(C)CCC#N)C2)no1 (stereo not given) | 0.0577
O=C1CCCN1CCN1CCCCC1Cn1cncn1 (stereo not given) | 17.7

Structure (SMILES) | cytotoxicity at 70.5 h [%]
CCc1c(NCc2ccc(F)cc2)cnn1CC(C)C | -6.17
COc1ccc(-c2nnc(C(C)N3CCOCC3)o2)cc1 (stereo not given) | -2.92
N#Cc1ccnc(N2CCN(C3CCOC3=O)CC2)c1 (stereo not given) | 14.2
CCOc1ccc(Cl)c(C(=O)NC(Cc2ccccc2)C(N)=O)n1 (stereo not given) | -1.23
COc1ccc(-c2nnc(C(C)N3CCOC(C)(C)C3)o2)cc1 (stereo not given) | -5.79
CCc1ccsc1C(=O)NC(Cc1ccccc1)C(N)=O (stereo not given) | -6.72
Cc1cc(S(C)(=O)=O)c(C)c(S(=O)(=O)NCC2CCC2)c1 | -9.88
Cc1cc(NC(=O)N2CCN(C)CC2C)n(Cc2ccccc2)n1 (stereo not given) | -9.75
COc1ccccc1NCC(=O)NCc1scnc1C | 13.6
Cc1cc(NC(=O)N(C)CCN2CCN(c3ccccc3)CC2)on1 | -2.89
Cc1cc(NC(=O)NC(C)CN2CCN(c3ccccc3)CC2)on1 (stereo not given) | -5.02
COCC1CN(c2ccc(Cl)cc2C#N)CCO1 (stereo not given) | -7.05
NC(=O)c1ccc(N2CCN(Cc3ccc(F)cc3Cl)CC2)nn1 | -9.22
COC(=O)c1cccc(CNC(=O)CCC(F)(F)F)c1 | -3.83
COc1cc(CNCCC(N)=O)c2c(c1)CC(C)O2 (stereo not given) | -0.966
N#Cc1cccn(CCOc2ccc(Cl)cc2)c1=O | -1.43
COCC1CN(c2ccc(C#N)c(Cl)c2)CCO1 (stereo not given) | 21.2
COc1cc(CNCCn2cc(C)cn2)c2c(c1)CC(C)O2 (stereo not given) | -8.44
COc1cc(CNCCn2cccn2)c2c(c1)CC(C)O2 (stereo not given) | 7.89
CC(C)c1csc(C(=O)N(C)c2ccc(Br)cn2)n1 | -3.47
CC1COC2(CCN(C(=O)c3ncoc3C(C)C)CC2)O1 (stereo not given) | 11.1
Cc1nn(C)c(N2CCOCC2)c1CNCC1CCS(=O)(=O)C1 (stereo not given) | -10.2
O=C(NCCNc1ncccn1)NCc1cccc(OC(F)F)c1 | 18.9
CN(C)c1ncccc1CNC(=O)NCc1ccco1 | 0.432

Structure (SMILES) | cytotoxicity at 70.5 h [%]
CNC(=O)Cc1ccccc1NC(=O)NCc1ccc(SC)cc1 | 19.8
CC(C)Cc1cc(NC(=O)c2ccc3[nH]nnc3c2)n(C)n1 | 14.7
Cc1cc(N(C)C)nc(N2CC(n3cccn3)C2)n1 | 5.13
O=C(NCC(O)COc1ccc(F)cc1)C1(c2ccc(F)cc2)CC1 (stereo not given) | -8.65
Cn1nc(CC(C)(C)C)cc1NC(=O)c1ccc(CNC(N)=O)cc1 | -7.81
CC(=O)Nc1cc(C(=O)Nc2cc(CC(C)(C)C)nn2C)ccc1F | 14.4
COc1cc2nc(NCc3ccc(C)nc3)nc(N)c2cc1OC | -5.25
CCCOc1cccc(NC(=O)NC2CCc3nc(C)nn3C2)c1 (stereo not given) | -5.39
CCc1cccc(NC(=O)NC2CCc3nc(C)nn3C2)c1 (stereo not given) | 13.8
O=C(NCC(F)(F)F)C1CCCN(Cc2ccno2)C1 (stereo not given) | -3.85
OCCOc1ccc(NCc2cccc3cccnc23)cn1 | 17.1
Cc1ncccc1CNc1ccc(OCCO)nc1 | -6.19
CC(C)NC(=O)NCc1ccnc(N(C)C)n1 | -6.75
CN(C)c1nccc(CNC(=O)NC(C)(C)C)n1 | -0.141
CN(C)c1nccc(CNC(=O)NCc2ccco2)n1 | -8.38
CCc1cnc(CN(C)C(=O)NC2CCN(c3ccccc3)C2)s1 (stereo not given) | -0.551
CCc1cnc(CN(C)C(=O)NC2CCN(CC3CC3)C2)s1 (stereo not given) | 25.5
c1cc(-c2noc(C3CCC3)n2)cc(N2CCCCC2)n1 | 16.5
COC(=O)C1CN(Cc2ccccc2C(C)(C)C#N)CCO1 (stereo not given) | -5.04
OCCOc1ccc(NCc2cccc3cn[nH]c23)cn1 | 0.12
Cc1cnc(CN2CCN(C(C)c3nc(C4CC4)no3)CC2)cn1 (stereo not given) | -6.13
CC1CCCCN1C(=O)c1ccc2c(c1)OCCCO2 (stereo not given) | 10.5
Cc1n[nH]cc1CNCc1cccc(OCC(F)(F)F)c1 | -0.995
Cc1n[nH]cc1CNCc1ccnc(OCC(F)(F)F)c1 | -7.14
